Patent US20220251141A1, “IMMUNOMODULATORS” (Bristol-Myers Squibb Company, priority 2019, published 2022)
Numbered stars: 1 amine (or outer) side, 2 acyl side, 3 side chain; on linkers, the order of the positions; unused ones are H or OH. Bridge positions count the residues as written; N and C are the ends. Square brackets hold non-standard residues; d marks the D form. Side chains are listed from the residue outwards. Peptide text beside a SMILES is read from it. * marks the point of attachment. Trp(1-CH2CO2Me) = COC(=O)Cn1cc(C[C@H](N)C(=O)O)c2ccccc21; Trp(1-CH2COOH) = N[C@@H](Cc1cn(CC(=O)O)c2ccccc12)C(=O)O; NHCH2CH2Ph(3,4-OCH2O) = c1cc2c(cc1CCN*)OCO2; NH(1R-phenylethyl) = C[C@@H](N*)c1ccccc1; NHCH2CHPh2 = c1ccc(C(CN*)c2ccccc2)cc1; Dab(CONH2) = NC(=O)NCC[C@H](N)C(=O)O; NHCHPh2 = c1ccc(C(N*)c2ccccc2)cc1; Hyp = O=C(O)[C@@H]1C[C@@H](O)CN1; NMeNle = CCCC[C@H](NC)C(=O)O; NMeA = CN[C@@H](C)C(=O)O; Dab = NCC[C@H](N)C(=O)O; Dap = NC[C@H](N)C(=O)O; NH(heptyl) = CCCCCCCN*; CO = O=C([*:1])[*:2]; N(Me)OMe = CON(C)*; X1 = CC(=O)NC(=O)*

These compounds were tested against T1, PD-1/PD-L1 (Homo sapiens, UniProt Q9NZQ7) (assay: PD-1/PD-L1 Homogenous Time-Resolved Fluorescence (HTRF) binding assay). Settings: PD-L1-His 10 nM final, PD-1-Ig 20 nM final; inhibitors pre-incubated with PD-L1-His for 15 m.
T1 construct: TVMV protease site linker (C); made in house; host or cells: HEK293T cells
Excerpt: The ability of the compounds of formula (I) to bind to PD-L1 was investigated using a PD-1/PD-L1 Homogenous Time-Resolved Fluorescence (HTRF) binding assay.
The interaction of PD-1 and PD-L1 can be assessed using soluble, purified preparations of the extracellular domains of the two proteins. The PD-1 and PD-L1 protein extracellular domains were expressed as fusion proteins with detection tags, for PD-1, the tag was the Fc portion of Immunoglobulin (PD-1-Ig) and for PD-L1 it was the 6 histidine motif (PD-L1-His). All binding studies were performed in an HTRF assay buffer consisting of dPBS supplemented with 0.1% […] bovine serum albumin and 0.05% (v/v) Tween-20. For the h/PD-L1-His binding assay, inhibitors were pre-incubated with PD-L1-His (10 nM final) for 15 m in 4 μl of assay buffer, followed by addition of PD-1-Ig (20 nM final) in 1 μl of assay buffer and further incubation for 15 m. HTRF detection was achieved using europium cryptate-labeled anti-Ig (1 nM final) and allophycocyanin (APC) labeled anti-His (20 nM final). Antibodies were diluted in HTRF detection buffer and 5 μl was dispensed on top of the binding reaction. The reaction mixture was allowed to equilibrate for 30 minutes and the resulting signal (665 nm/620 nm ratio) was obtained using an EnVision fluorometer. Additional binding assays were established between the human proteins PD-1-Ig/PD-L2-His (20 & 5 nM, respectively) and CD80-His/PD-L1-Ig (100 & 10 nM, respectively).
Recombinant Proteins: Human PD-1 (25-167) with a C-terminal human Fc domain of immunoglobulin G (Ig) epitope tag [hPD-1 (25-167)-3S-IG] and human PD-L1 (18-239) with a C-terminal His epitope tag [hPD-L1(18-239)-TVMV-His] were expressed in HEK293T cells and purified sequentially by Protein A affinity chromatography and size exclusion chromatography. Human PD-L2-His and CD80-His was obtained through commercial sources.
Table 3 lists the IC50 values for representative examples of this disclosure measured in the PD-1/PD-L1 Homogenous Time-Resolved Fluorescence (HTRF) binding assay.

| SMILES | IC50 [nM] |
| --- | --- |
| CCCC[C@H]1C(=O)N(C)[C@@H](CCCC)C(=O)N[C@@H](CC(C)C)C(=O)N[C@H](C(=O)NCC(N)=O)CSCC(=O)N[C@@H](Cc2ccc(O)cc2)C(=O)N(C)[C@@H](C)C(=O)N[C@@H](CC(N)=O)C(=O)N2CCC[C@H]2C(=O)N[C@@H](CNC(=O)NC(C)=O)C(=O)N[C@@H](CC(C)C)C(=O)N2C[C@H](O)C[C@H]2C(=O)N[C@@H](Cc2c[nH]c3ccccc23)C(=O)N[C@@H](CCNC(N)=O)C(=O)N[C@@H](Cc2cn(CC(=O)O)c3ccccc23)C(=O)N1C [Example 1030] ({CH2CO}-Y[NMeA]NP[Dap](X1)L[Hyp]W[Dab(CONH2)][Trp(1-CH2COOH)][NMeNle][NMeNle]LCG-NH2; thioether N-14) | 4 |
| CCCC[C@H]1C(=O)N(C)[C@@H](CCCC)C(=O)N[C@@H](CC(C)C)C(=O)N[C@H](C(=O)NCC(N)=O)CSCC(=O)N[C@@H](Cc2ccc(O)cc2)C(=O)N(C)[C@@H](C)C(=O)N[C@@H](CC(N)=O)C(=O)N2CCC[C@H]2C(=O)N[C@@H](CNC(=O)NC(C)=O)C(=O)N[C@@H](CC(C)C)C(=O)N2C[C@H](O)C[C@H]2C(=O)N[C@@H](Cc2c[nH]c3ccccc23)C(=O)N[C@@H](CCNC(=O)NC(C)=O)C(=O)N[C@@H](Cc2cn(CC(=O)O)c3ccccc23)C(=O)N1C [Example 1031] ({CH2CO}-Y[NMeA]NP[Dap](X1)L[Hyp]W[Dab](X1)[Trp(1-CH2COOH)][NMeNle][NMeNle]LCG-NH2; thioether N-14) | 4.7 |
| CCCC[C@H]1C(=O)N(C)[C@@H](CCCC)C(=O)N[C@@H](CC(C)C)C(=O)N[C@H](C(=O)NCC(N)=O)CSCC(=O)N[C@@H](Cc2ccc(O)cc2)C(=O)N(C)[C@@H](C)C(=O)N[C@@H](CC(N)=O)C(=O)N2CCC[C@H]2C(=O)N[C@@H](CNC(=O)N(C)C)C(=O)N[C@@H](CC(C)C)C(=O)N2C[C@H](O)C[C@H]2C(=O)N[C@@H](Cc2c[nH]c3ccccc23)C(=O)N[C@@H](CCNC(=O)N(C)C)C(=O)N[C@@H](Cc2cn(CC(=O)O)c3ccccc23)C(=O)N1C [Example 1032] ({CH2CO}-Y[NMeA]NP[Dap]([CO-NMe2])L[Hyp]W[Dab]([CO-NMe2])[Trp(1-CH2COOH)][NMeNle][NMeNle]LCG-NH2; thioether N-14) | 0.74 |
| CCCCCCCNC(=O)NCC[C@@H]1NC(=O)[C@H](Cc2c[nH]c3ccccc23)NC(=O)[C@@H]2C[C@@H](O)CN2C(=O)[C@H](CC(C)C)NC(=O)[C@H](CNC(=O)NCCCCCCC)NC(=O)[C@@H]2CCCN2C(=O)[C@H](CC(N)=O)NC(=O)[C@H](C)N(C)C(=O)[C@H](Cc2ccc(O)cc2)NC(=O)CSC[C@@H](C(=O)NCC(N)=O)NC(=O)[C@H](CC(C)C)NC(=O)[C@H](CCCC)N(C)C(=O)[C@H](CCCC)N(C)C(=O)[C@H](Cc2cn(CC(=O)O)c3ccccc23)NC1=O [Example 1033] ({CH2CO}-Y[NMeA]NP[Dap]([CO-NH(heptyl)])L[Hyp]W[Dab]([CO-NH(heptyl)])[Trp(1-CH2COOH)][NMeNle][NMeNle]LCG-NH2; thioether N-14) | 7.6 |
| CCCCCCCNC(=O)NCC[C@@H]1NC(=O)[C@H](Cc2c[nH]c3ccccc23)NC(=O)[C@@H]2C[C@@H](O)CN2C(=O)[C@H](CC(C)C)NC(=O)[C@H](CNC(=O)NCCCCCCC)NC(=O)[C@@H]2CCCN2C(=O)[C@H](CC(N)=O)NC(=O)[C@H](C)N(C)C(=O)[C@H](Cc2ccc(O)cc2)NC(=O)CSC[C@@H](C(=O)NCC(N)=O)NC(=O)[C@H](CC(C)C)NC(=O)[C@H](CCCC)N(C)C(=O)[C@H](CCCC)N(C)C(=O)[C@H](Cc2cn(CC(=O)O)c3ccccc23)NC1=O [Example 1035] ({CH2CO}-Y[NMeA]NP[Dap]([CO-NH(heptyl)])L[Hyp]W[Dab]([CO-NH(heptyl)])[Trp(1-CH2COOH)][NMeNle][NMeNle]LCG-NH2; thioether N-14) | 8.3 |
| CCCC[C@H]1C(=O)N(C)[C@@H](CCCC)C(=O)N[C@@H](CC(C)C)C(=O)N[C@H](C(=O)NCC(N)=O)CSCC(=O)N[C@@H](Cc2ccc(O)cc2)C(=O)N(C)[C@@H](C)C(=O)N[C@@H](CC(N)=O)C(=O)N2CCC[C@H]2C(=O)N[C@@H](CNC(=O)N(C)OC)C(=O)N[C@@H](CC(C)C)C(=O)N2C[C@H](O)C[C@H]2C(=O)N[C@@H](Cc2c[nH]c3ccccc23)C(=O)N[C@@H](CCNC(=O)N(C)OC)C(=O)N[C@@H](Cc2cn(CC(=O)OC)c3ccccc23)C(=O)N1C [Example 1036] ({CH2CO}-Y[NMeA]NP[Dap]([CO-N(Me)OMe])L[Hyp]W[Dab]([CO-N(Me)OMe])[Trp(1-CH2CO2Me)][NMeNle][NMeNle]LCG-NH2; thioether N-14) | 1.4 |
| CCCC[C@H]1C(=O)N(C)[C@@H](CCCC)C(=O)N[C@@H](CC(C)C)C(=O)N[C@H](C(=O)NCC(N)=O)CSCC(=O)N[C@@H](Cc2ccc(O)cc2)C(=O)N(C)[C@@H](C)C(=O)N[C@@H](CC(N)=O)C(=O)N2CCC[C@H]2C(=O)N[C@@H](CNC(=O)NC(c2ccccc2)c2ccccc2)C(=O)N[C@@H](CC(C)C)C(=O)N2C[C@H](O)C[C@H]2C(=O)N[C@@H](Cc2c[nH]c3ccccc23)C(=O)N[C@@H](CCNC(=O)NC(c2ccccc2)c2ccccc2)C(=O)N[C@@H](Cc2cn(CC(=O)O)c3ccccc23)C(=O)N1C [Example 1037] ({CH2CO}-Y[NMeA]NP[Dap]([CO-NHCHPh2])L[Hyp]W[Dab]([CO-NHCHPh2])[Trp(1-CH2COOH)][NMeNle][NMeNle]LCG-NH2; thioether N-14) | 5.1 |
| CCCC[C@H]1C(=O)N(C)[C@@H](CCCC)C(=O)N[C@@H](CC(C)C)C(=O)N[C@H](C(=O)NCC(N)=O)CSCC(=O)N[C@@H](Cc2ccc(O)cc2)C(=O)N(C)[C@@H](C)C(=O)N[C@@H](CC(N)=O)C(=O)N2CCC[C@H]2C(=O)N[C@@H](CNC(=O)NCCc2ccc3c(c2)OCO3)C(=O)N[C@@H](CC(C)C)C(=O)N2C[C@H](O)C[C@H]2C(=O)N[C@@H](Cc2c[nH]c3ccccc23)C(=O)N[C@@H](CCN)C(=O)N[C@@H](Cc2cn(CC(=O)O)c3ccccc23)C(=O)N1C [Example 1039] ({CH2CO}-Y[NMeA]NP[Dap]([CO-NHCH2CH2Ph(3,4-OCH2O)])L[Hyp]W[Dab][Trp(1-CH2COOH)][NMeNle][NMeNle]LCG-NH2; thioether N-14) | 1.5 |
| CCCC[C@H]1C(=O)N(C)[C@@H](CCCC)C(=O)N[C@@H](CC(C)C)C(=O)N[C@H](C(=O)NCC(N)=O)CSCC(=O)N[C@@H](Cc2ccc(O)cc2)C(=O)N(C)[C@@H](C)C(=O)N[C@@H](CC(N)=O)C(=O)N2CCC[C@H]2C(=O)N[C@@H](CNC(=O)NCC(c2ccccc2)c2ccccc2)C(=O)N[C@@H](CC(C)C)C(=O)N2C[C@H](O)C[C@H]2C(=O)N[C@@H](Cc2c[nH]c3ccccc23)C(=O)N[C@@H](CCN)C(=O)N[C@@H](Cc2cn(CC(=O)O)c3ccccc23)C(=O)N1C [Example 1040] ({CH2CO}-Y[NMeA]NP[Dap]([CO-NHCH2CHPh2])L[Hyp]W[Dab][Trp(1-CH2COOH)][NMeNle][NMeNle]LCG-NH2; thioether N-14) | 3 |
| CCCC[C@H]1C(=O)N(C)[C@@H](CCCC)C(=O)N[C@@H](CC(C)C)C(=O)N[C@H](C(=O)NCC(N)=O)CSCC(=O)N[C@@H](Cc2ccc(O)cc2)C(=O)N(C)[C@@H](C)C(=O)N[C@@H](CC(N)=O)C(=O)N2CCC[C@H]2C(=O)N[C@@H](CNC(=O)N[C@H](C)c2ccccc2)C(=O)N[C@@H](CC(C)C)C(=O)N2C[C@H](O)C[C@H]2C(=O)N[C@@H](Cc2c[nH]c3ccccc23)C(=O)N[C@@H](CCN)C(=O)N[C@@H](Cc2cn(CC(=O)O)c3ccccc23)C(=O)N1C [Example 1041] ({CH2CO}-Y[NMeA]NP[Dap]([CO-NH(1R-phenylethyl)])L[Hyp]W[Dab][Trp(1-CH2COOH)][NMeNle][NMeNle]LCG-NH2; thioether N-14) | 4.4 |
| CCCC[C@H]1C(=O)N(C)[C@@H](CCCC)C(=O)N[C@@H](CC(C)C)C(=O)N[C@H](C(=O)NCC(N)=O)CSCC(=O)N[C@@H](Cc2ccc(O)cc2)C(=O)N(C)[C@@H](C)C(=O)N[C@@H](CC(N)=O)C(=O)N2CCC[C@H]2C(=O)N[C@@H](CNC(=O)NCC(c2ccccc2)c2ccccc2)C(=O)N[C@@H](CC(C)C)C(=O)N2C[C@H](O)C[C@H]2C(=O)N[C@@H](Cc2c[nH]c3ccccc23)C(=O)N[C@@H](CCNC(=O)NCC(c2ccccc2)c2ccccc2)C(=O)N[C@@H](Cc2cn(CC(=O)O)c3ccccc23)C(=O)N1C [Example 1042] ({CH2CO}-Y[NMeA]NP[Dap]([CO-NHCH2CHPh2])L[Hyp]W[Dab]([CO-NHCH2CHPh2])[Trp(1-CH2COOH)][NMeNle][NMeNle]LCG-NH2; thioether N-14) | 11.4 |
